Measured values reported in ChEMBL document CHEMBL3745608, “Structure-based design, synthesis, and biological evaluation of Leu-Arg dipeptide analogs as novel hepsin inhibitors” (Bioorg Med Chem Lett, 2016).
Where a SMILES comes first, the peptide text is derived from it.

Assays:
[1] = target: T1, Suppressor of tumorigenicity 14 protein homolog (Mus musculus, UniProt P56677); test: Inhibition of mouse recombinant matriptase using Boc-QAR-AMC as substrate preincubated for 30 mins followed by substrate addition measured for 15 to 120 mins by plate reader analysis
T1 sequence (P56677 whole entry): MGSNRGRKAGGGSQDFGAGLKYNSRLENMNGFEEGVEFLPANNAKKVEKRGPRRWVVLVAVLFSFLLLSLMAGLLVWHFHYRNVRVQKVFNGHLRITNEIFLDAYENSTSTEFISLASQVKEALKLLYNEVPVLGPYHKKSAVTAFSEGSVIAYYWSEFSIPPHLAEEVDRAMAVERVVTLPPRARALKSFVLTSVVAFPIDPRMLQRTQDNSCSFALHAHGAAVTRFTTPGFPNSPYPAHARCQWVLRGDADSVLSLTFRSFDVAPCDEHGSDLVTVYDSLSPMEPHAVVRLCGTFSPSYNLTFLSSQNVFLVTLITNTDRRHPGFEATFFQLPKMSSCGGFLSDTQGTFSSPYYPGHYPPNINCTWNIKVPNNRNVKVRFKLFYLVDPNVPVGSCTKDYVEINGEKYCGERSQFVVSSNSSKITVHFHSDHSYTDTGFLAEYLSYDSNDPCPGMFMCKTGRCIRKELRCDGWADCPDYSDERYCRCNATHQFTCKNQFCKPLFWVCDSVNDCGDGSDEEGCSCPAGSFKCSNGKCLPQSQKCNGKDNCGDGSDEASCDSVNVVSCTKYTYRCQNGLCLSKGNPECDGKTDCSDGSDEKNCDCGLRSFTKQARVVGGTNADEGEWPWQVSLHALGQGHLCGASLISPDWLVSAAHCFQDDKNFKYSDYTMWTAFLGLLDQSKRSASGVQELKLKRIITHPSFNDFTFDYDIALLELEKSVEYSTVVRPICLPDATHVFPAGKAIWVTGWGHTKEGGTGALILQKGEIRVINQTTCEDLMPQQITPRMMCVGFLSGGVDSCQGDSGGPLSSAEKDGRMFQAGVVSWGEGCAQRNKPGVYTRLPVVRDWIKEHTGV

Serine protease hepsin = Serine protease hepsin (Homo sapiens, UniProt P05981); test: Inhibition of human recombinant hepsin using Boc-QAR-AMC as substrate preincubated for 30 mins followed by substrate addition measured for 15 to 120 mins by plate reader analysis
[2] = Selectivity ratio of Ki for mouse recombinant matriptase to Ki for human recombinant hepsin

Sequence of Serine protease hepsin (P05981 1-162 limits assumed): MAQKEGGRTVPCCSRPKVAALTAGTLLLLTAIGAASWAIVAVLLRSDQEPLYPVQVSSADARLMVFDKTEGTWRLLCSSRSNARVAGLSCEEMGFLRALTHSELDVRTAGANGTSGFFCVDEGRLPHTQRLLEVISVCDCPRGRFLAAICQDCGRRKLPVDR
Sequence of Serine protease hepsin (P05981 163-417 limits assumed): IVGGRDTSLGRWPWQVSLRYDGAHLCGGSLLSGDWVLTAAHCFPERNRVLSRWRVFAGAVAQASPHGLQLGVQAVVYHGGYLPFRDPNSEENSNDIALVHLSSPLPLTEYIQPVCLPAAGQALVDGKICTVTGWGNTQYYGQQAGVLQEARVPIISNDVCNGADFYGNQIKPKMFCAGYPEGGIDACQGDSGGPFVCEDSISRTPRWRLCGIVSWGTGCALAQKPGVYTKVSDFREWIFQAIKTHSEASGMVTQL

| SMILES | Ki [1] | Ki (Serine protease hepsin) | Ratio Ki [2] |
| --- | --- | --- | --- |
| CC(=O)N[C@@H](CCC(N)=O)C(=O)N[C@@H](CC(C)C)C(=O)N[C@@H](CCCNC(=N)N)C(=O)c1nccs1 | 11.3 nM | 1.04 nM | 8 |
| CC(=O)N[C@@H](CCCCN)C(=O)N[C@@H](CCC(N)=O)C(=O)N[C@@H](CC(C)C)C(=O)O (Ac-Lys-Gln-Leu-OH) | > 10000 nM | > 10000 nM | – |
| CC(=O)N[C@@H](CCCCN)C(=O)N[C@@H](CCC(N)=O)C(=O)N[C@@H](CC(C)C)C(=O)N[C@H](CCCNC(=N)N)C(=O)c1nccs1 | 8 nM | 0.83 nM | – |
| CC(=O)N[C@@H](CC(C)C)C(=O)N[C@H](CCCNC(=N)N)C(=O)c1ccccc1 | > 10000 nM | > 10000 nM | – |
| CC(=O)N[C@@H](CC(C)C)C(=O)N[C@H](CCCNC(=N)N)C(=O)c1nccs1 | 246 nM | 21.5 nM | 8 |
| CC(=O)N[C@@H](CC(C)C)C(=O)N[C@@H](CCCNC(=N)N)C(=O)c1nccs1 | 334 nM | 22.4 nM | 8 |
| CC(=O)N[C@@H](CCCNC(=N)N)C(=O)c1nccs1 | > 10000 nM | > 10000 nM | – |
| CC(=O)N[C@@H](CCC(N)=O)C(=O)N[C@@H](CC(C)C)C(=O)N[C@H](CCCNC(=N)N)C(=O)c1nccs1 | 11.1 nM | 2.88 nM | 8 |
| CC(=O)N[C@@H](CC(C)C)C(=O)N[C@@H](CCCNC(=N)N)C(=O)c1ccccc1 | > 10000 nM | > 10000 nM | – |
| CC(=O)N[C@@H](CCCCN)C(=O)N[C@@H](CCC(N)=O)C(=O)N[C@@H](CC(C)C)C(=O)N[C@@H](CCCNC(=N)N)C(=O)c1nccs1 | 10.4 nM | 1.45 nM | – |
| CC(=O)N[C@@H](CC(C)C)C(=O)N[C@H](CCCNC(=N)N)C(=O)c1nc2ccccc2s1 | 177 nM | 2.91 nM | > 60 |
| CC(=O)N[C@@H](CC(C)C)C(=O)N[C@@H](CCCN=C(N)N)C(=O)c1nc2ccccc2s1 | 227 nM | 3.38 nM | > 60 |
